Where a name gives a salt, the structure may show the parent alone.
What was measured:
[1] = molecular target: T1, CDK9/CyclinT1 (Homo sapiens, UniProt P50750); assay: In vitro CDK9/CyclinT1 enzyme activity test (ADP-Glo); assay type: biochemical; details: 100 μM ATP, 25° C., 120 minutes
T1 construct: purchased Carna
Experimental: CDK9/CyclinT1 kinase was purchased from Carna, ADP-Glo detection kit was purchased from Promega, and PKDTide substrate and kinase reaction buffer were purchased from Signalchem. Nivo multi-label analyzer (PerkinElmer).
The kinase buffer in the kit was used to dilute the enzyme, substrate, adenosine triphosphate and inhibitors.
The compound to be tested was diluted by 5 times for 8 concentrations with a discharge gun, ie., dilution from 50 μM to 0.65 nM, with a DMSO concentration of 5%, and replicated. 1 μL of each concentration gradient of the inhibitor, 2 μL CDK9/CyclinT1 enzyme (4 ng), 2 μL of a mixture of substrate and ATP (100 μM adenosine triphosphate, 0.2 μg/μL substrate) was added to the microplate, and the final concentration gradient of the compound was 10 μM dilution to 0.13 nM. The reaction system was placed at 25° C. for 120 minutes. After the reaction, 5 μL of ADP-Glo reagent was added to each well, and the reaction was allowed to continue at 25° C. for 40 minutes. After the reaction, 10 μL of kinase detection reagent was added to each well. After reacting at 25° C. for 30 minutes, a multi-label analyzer was used to read chemiluminescence. The integration time was 0.5 seconds.
Table 1 provides the enzymatic inhibitory activity of the compounds of the present invention on CDK9/CyclinT1.

[2] = molecular target: T2, CDK1/CyclinB1 (Homo sapiens, UniProt P06493); assay: In vitro CDK1/CyclinB1 enzyme activity test (ADP-Glo); assay type: biochemical; details: 25 μM ATP, 25° C., 120 minutes
T2 construct: purchased Promega
Experimental: CDK1/CyclinB1 kinase detection kit was purchased from Promega. Nivo multi-label analyzer (PerkinElmer).
(§1) Using the kinase buffer in the kit to dilute the enzyme, substrate, adenosine triphosphate and inhibitor.
The compound to be tested was diluted 5-fold to the 8th concentration with a discharge gun, that is, diluted from 50 μM to 0.65 nM, with a DMSO concentration of 5%, and replicated. Add 1 μL of each inhibitor concentration gradient, 2 μL CDK1/CyclinB1 enzyme (12.5 ng), 2 μL mixture of substrate and ATP (25 μM adenosine triphosphate, 0.2 μg/μL substrate) into the microplate, and the final concentration gradient of the compound is 10 μM dilute to 0.13 nM. The reaction system was placed at 25° C. for 120 minutes. After the reaction, add 5 μL of ADP-Glo reagent to each well, and continue the reaction at 25° C. for 40 minutes. After the reaction, add 10 μL of kinase detection reagent to each well. After reacting at 25° C. for 30 minutes, use a multi-label analyzer to read chemiluminescence. The integration time is 0.5 seconds.
Table 1 provides the CDK1/CyclinB1 enzymatic inhibitory activity of the compounds of the present invention.

[3] = molecular target: T3, CDK2/CyclinE1 (Homo sapiens, UniProt P24941); assay: In vitro CDK2/CyclinE1 enzyme activity test (ADP-Glo); assay type: biochemical; details: 150 μM ATP, 25° C., 60 minutes
T3 construct: purchased Promega
Experimental: CDK2/CyclinE1 kinase detection kit was purchased from Promega. Nivo multi-label analyzer (PerkinElmer).
as §1
The compound to be tested was diluted 5-fold to the 8th concentration with a discharge gun, that is, diluted from 50 μM to 0.65 nM, with a DMSO concentration of 5%, and replicated. Add 1 μL of each inhibitor concentration gradient, 2 μL CDK2/CyclinE1 enzyme (2 ng), 2 μL mixture of substrate and ATP (150 μM adenosine triphosphate, 0.1 μg/μL substrate) to the microplate, and the final concentration gradient of the compound is 10 μM dilution to 0.13 nM. The reaction system was placed at 25° C. for 60 minutes. After the reaction, add 5 μL of ADP-Glo reagent to each well, and continue the reaction at 25° C. for 40 minutes. After the reaction, add 10 μL of kinase detection reagent to each well. After reacting at 25° C. for 30 minutes, use a multi-label analyzer to read chemiluminescence. The integration time is 0.5 seconds.
Table 1 provides the CDK2/CyclinE1 enzymatic inhibitory activity of the compounds of the present invention.

[4] = system: MV-4-11 cells; assay: In vitro cell activity test, MV-4-11 proliferation (CellTiter-Glo); assay type: cell-based; details: Homo sapiens, MV4-11, 72 h, 3 days incubation
Experimental: IMDM medium, fetal bovine serum, penicillin/streptomycin antibiotics were purchased from Promega (Madison, Wis.). The MV-4-11 cell line was purchased from the Cell Bank of the Chinese Academy of Sciences. Nivo multi-label analyzer (PerkinElmer).
Plant MV-4-11 cells in a white 96-well plate, 80 μL of cell suspension per well, which contains 6000 MV-4-11 cells. The cell plate was cultured overnight in a carbon dioxide incubator.
The compound to be tested was diluted 5-fold to the 8th concentration with a discharge gun, that is, diluted from 2 mM to 26 nM, and replicated. Add 78 μL of culture medium to the middle plate, and then transfer 2 μL of each well of the gradient dilution compound to the middle plate according to the corresponding position, and transfer 20 μL of each well to the cell plate after mixing. The final concentration of the compound is 10 μM to 0.13 nM. The cell plate was placed in a carbon dioxide incubator for 3 days.
Add 25 μL of Promega CellTiter-Glo reagent per well to the cell plate and incubate at room temperature for 10 minutes to stabilize the luminescence signal. Use PerkinElmer Nivo multi-label analyzer to read.

[5] = system: MV4-11 acute myeloid leukemia xenograft (CDX); assay: In vivo drug efficacy study (1), MV4-11 CDX model; details: 15 mg/kg injected weekly; for Tumor Volume Day 0: Day 0 (start of administration)
Experimental: In vivo drug efficacy experiments were performed on human-derived tumor cell line-based xenograft (CDX) BALB/c nude mice derived from patients with MV4-11 acute myeloid leukemia subcutaneously implanted.
(§2) Female 6- to 8-week old BALB/c nude mice which weighed about 18-22 g were kept in separate ventilated cages (3 mice per cage) in a special pathogen-free environment. All the cages, matts and water were disinfected before use. All the animals had free access to standard certified commercial laboratory diet. A total of 30 mice were purchased from Shanghai Lingchang biological science and technology Co., LTD. for study. Each mouse was subcutaneously implanted with tumor cells in the right next abdomen (10×10^6 in 0.2 mL of phosphate buffer) for tumor growth. The administration started when the average tumor volume reached approximately 110 cubic millimeters. The test compound was injected weekly at a dose of 15 mg/kg. The tumor volumes were measured with a two-dimensional caliper twice a week, and the volumes were expressed in cubic millimeters and calculated by the formula: V=0.5a×b^2, where a and b were the major diameter and the minor diameter of the tumor, respectively. Antitumor efficacy was determined by dividing an average increase of the tumor volumes of the animals treated with the compounds by an average increase of the tumor volumes of the untreated animals.

[6] = system: MV4-1 acute myeloid leukemia xenograft (CDX); assay: In vivo drug efficacy study (2), MV4-11 CDX model; details: 10 mg/kg injected weekly; for Tumor Volume Day 0: Day 0 (start of administration)
Experimental: In vivo drug efficacy experiments were performed on human-derived tumor cell line-based xenograft (CDX) BALB/c nude mice derived from patients with MV4-1 acute myeloid leukemia subcutaneously implanted.
as §2, with “36” for “30”, “121” for “110”, “10” for “15”

[7] = clinical research, background; cited from earlier work
[8] = background; cited from earlier work

T2 sequence (P06493 whole entry): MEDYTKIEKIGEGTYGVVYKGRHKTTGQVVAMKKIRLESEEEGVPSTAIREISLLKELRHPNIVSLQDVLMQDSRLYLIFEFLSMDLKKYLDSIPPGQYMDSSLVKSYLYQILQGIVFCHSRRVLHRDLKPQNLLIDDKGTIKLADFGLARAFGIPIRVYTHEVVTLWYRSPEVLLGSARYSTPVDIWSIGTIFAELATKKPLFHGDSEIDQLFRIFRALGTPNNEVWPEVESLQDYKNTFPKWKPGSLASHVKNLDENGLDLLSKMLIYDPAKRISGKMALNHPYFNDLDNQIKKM
T2 sequence (P14635 whole entry partner): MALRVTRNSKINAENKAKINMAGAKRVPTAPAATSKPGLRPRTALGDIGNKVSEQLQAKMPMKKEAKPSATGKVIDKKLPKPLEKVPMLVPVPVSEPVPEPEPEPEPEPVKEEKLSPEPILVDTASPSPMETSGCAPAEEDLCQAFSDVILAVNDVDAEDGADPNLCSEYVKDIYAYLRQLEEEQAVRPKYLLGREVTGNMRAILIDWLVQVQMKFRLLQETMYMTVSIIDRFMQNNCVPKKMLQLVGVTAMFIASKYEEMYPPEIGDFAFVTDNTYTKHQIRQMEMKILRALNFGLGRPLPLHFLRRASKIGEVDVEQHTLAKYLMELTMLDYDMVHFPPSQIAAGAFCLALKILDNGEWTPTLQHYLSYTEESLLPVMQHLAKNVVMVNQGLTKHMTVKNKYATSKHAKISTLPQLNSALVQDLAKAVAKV
T1 sequence (P50750 whole entry): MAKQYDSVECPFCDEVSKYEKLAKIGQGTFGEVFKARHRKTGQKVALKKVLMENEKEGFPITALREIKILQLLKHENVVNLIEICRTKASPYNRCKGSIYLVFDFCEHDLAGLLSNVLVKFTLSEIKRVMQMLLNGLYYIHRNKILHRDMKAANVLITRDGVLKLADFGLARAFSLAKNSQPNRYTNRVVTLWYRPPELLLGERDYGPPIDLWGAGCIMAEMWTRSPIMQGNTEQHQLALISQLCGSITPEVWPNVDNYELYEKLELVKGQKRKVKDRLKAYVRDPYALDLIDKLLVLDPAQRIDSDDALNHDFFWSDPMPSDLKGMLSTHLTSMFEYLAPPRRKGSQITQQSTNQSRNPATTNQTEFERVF
T1 sequence (O60563 whole entry partner): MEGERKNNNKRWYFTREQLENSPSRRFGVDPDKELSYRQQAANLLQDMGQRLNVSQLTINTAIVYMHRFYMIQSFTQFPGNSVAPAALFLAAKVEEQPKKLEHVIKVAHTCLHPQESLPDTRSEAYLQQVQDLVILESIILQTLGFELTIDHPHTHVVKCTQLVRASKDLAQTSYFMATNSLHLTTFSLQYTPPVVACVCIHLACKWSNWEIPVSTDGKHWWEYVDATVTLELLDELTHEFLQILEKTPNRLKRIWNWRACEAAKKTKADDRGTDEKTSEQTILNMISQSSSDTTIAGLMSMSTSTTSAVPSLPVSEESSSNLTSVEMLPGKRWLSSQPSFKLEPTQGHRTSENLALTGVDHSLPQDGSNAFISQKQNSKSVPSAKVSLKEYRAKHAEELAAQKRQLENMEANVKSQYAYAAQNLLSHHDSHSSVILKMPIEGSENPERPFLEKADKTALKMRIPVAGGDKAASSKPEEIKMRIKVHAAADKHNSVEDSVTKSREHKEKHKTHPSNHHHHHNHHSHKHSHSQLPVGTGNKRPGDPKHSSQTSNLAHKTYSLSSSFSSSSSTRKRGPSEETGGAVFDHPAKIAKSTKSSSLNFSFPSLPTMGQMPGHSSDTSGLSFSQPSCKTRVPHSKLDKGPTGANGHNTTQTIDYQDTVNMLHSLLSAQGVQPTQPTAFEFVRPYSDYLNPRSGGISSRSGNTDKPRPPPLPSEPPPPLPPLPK

IC50 [1]	IC50 [2]	IC50 [3]	IC50 [4]	SMILES	further results
9.6 nM	1030 nM	394 nM	52 nM	COCC(C)N1CCC(c2cc3c(-c4cnn(CC5CC5)c4)c(Cl)cnc3[nH]2)CC1 (stereo not shown) [Compound 6 (formate)]	–
6.3 nM	133 nM	105 nM	67.3 nM	Clc1cnc2[nH]c(C3CCNCC3)cc2c1-c1cnn(Cc2ccccc2)c1 [Compound 9 (formate)]	–
10.6 nM	1550 nM	235 nM	63.8 nM	COCCN1CCC(c2cc3c(-c4cnn(CC5CC5)c4)c(Cl)cnc3[nH]2)CC1 [5 (hydrochloride)]	–
18 nM	879 nM	933 nM	252 nM	c1cc(-c2cnn(CC3CC3)c2)c2cc(C3CCNCC3)[nH]c2n1 [Compound 3 (formate)]	–
38.4 nM	–	1360 nM	464 nM	Clc1cnc2[nH]c(C3CCNCC3)nc2c1-c1cnn(CC2CC2)c1 [Compound 14]	–
7.1 nM	178 nM	75 nM	54.6 nM	Clc1cnc2[nH]c(C3CCNCC3)cc2c1-c1cnn(CC2CCCC2)c1 [Compound 8 (formate)]	–
14.1 nM	416 nM	105 nM	7.4 nM	CCN1CCC(c2cc3c(-c4cnn(CC5CC5)c4)c(Cl)cnc3[nH]2)CC1 [Compound 3 (hydrochloride)]	–
10.3 nM	756 nM	334 nM	94.8 nM	CC(C)N1CCC(c2cc3c(-c4cnn(CC5CC5)c4)c(Cl)cnc3[nH]2)CC1 [4 (hydrochloride)]	–
7.7 nM	260 nM	549 nM	286 nM	Clc1ccc(Cn2cc(-c3c(Cl)cnc4[nH]c(C5CCNCC5)cc34)cn2)cc1 [Compound 12]	–
6.9 nM	87.9 nM	549 nM	79.1 nM	Clc1ccccc1Cn1cc(-c2c(Cl)cnc3[nH]c(C4CCNCC4)cc23)cn1 [Compound 10 (formate)]	–
6.4 nM	120 nM	214 nM	64.8 nM	Clc1cccc(Cn2cc(-c3c(Cl)cnc4[nH]c(C5CCNCC5)cc34)cn2)c1 [Compound 11 (formate)]	–
7.1 nM	255 nM	79.4 nM	35.7 nM	CN1CCC(c2cc3c(-c4cnn(CC5CC5)c4)c(Cl)cnc3[nH]2)CC1 [Compound 2 (formate)]	–
5.2 nM	366 nM	113 nM	86.6 nM	Clc1cnc2[nH]c(C3CCNCC3)c(Cl)c2c1-c1cnn(CC2CC2)c1 [Compound 7]	–

SMILES	IC50 [1]	IC50 [2]	IC50 [3]	IC50 [4]	further results
Clc1cnc2[nH]c(C3CCNCC3)cc2c1-c1cnn(CC2CC2)c1 [Compound 1 (hydrochloride)]	7.7 nM	88.7 nM	112 nM	14.7 nM	Animals' Drug Tolerance [5]: Well; Tumor Volume Day 0 [5]: 110 mm^3; Tumor Volume Day 7 [5]: 109 mm^3; Tumor Volume Day 17 [5]: 42 mm^3; Tumor Volume Day 28 [5]: 107 mm^3; Animals' Drug Tolerance [6]: Well; Tumor Volume Day 0 [6]: 121 mm^3; Tumor Volume Day 7 [6]: 121 mm^3; Tumor Volume Day 17 [6]: 151 mm^3; Tumor Volume Day 28 [6]: 419 mm^3
COc1cc(F)ccc1-c1cc(Nc2cc(CS(C)(=N)=O)ccn2)ncc1F (stereo not shown) [BAY1251152]	–	300 nM	193 nM	28.2 nM	Animals' Drug Tolerance [5]: 5/6 mouse; Tumor Volume Day 0 [5]: 110 mm^3; Tumor Volume Day 7 [5]: 107 mm^3; Tumor Volume Day 17 [5]: 83 mm^3; Tumor Volume Day 28 [5]: 426 mm^3; clinically most important grade 3/4 and dose-limiting adverse side effect [7]: neutropenia
CC(=O)N[C@@H]1CCC[C@H](C(=O)Nc2cc(-c3cnn4c3CC(C)(C)C4)c(Cl)cn2)C1 [AZD4573]	–	2 nM	1 nM	–	Animals' Drug Tolerance [5]: Well; Tumor Volume Day 0 [5]: 110 mm^3; Tumor Volume Day 7 [5]: 173 mm^3; Tumor Volume Day 17 [5]: 262 mm^3; Tumor Volume Day 28 [5]: 975 mm^3; metabolism (in words) [8]: not good
Cn1cc(-c2c(Cl)cnc3[nH]c(C4CCNCC4)cc23)cn1 [Compound 15 (hydrochloride)]	4.3 nM	824 nM	685 nM	34.5 nM	Animals' Drug Tolerance [6]: Well; Tumor Volume Day 0 [6]: 121 mm^3; Tumor Volume Day 7 [6]: 87 mm^3; Tumor Volume Day 17 [6]: 74 mm^3; Tumor Volume Day 28 [6]: 332 mm^3

From patent US20220267321A1, “AZAINDOLE PYRAZOLE COMPOUNDS AS CDK9 INHIBITORS” (MEDSHINE DISCOVERY INC., priority 2019, published 2022)
